Measurements as given in patent US7282484B2, “Anti-tumor agents” (Point Therapeutics, Inc., priority 1999, dated 2007).
“And” between values parts separate entries of the source, which are not always exact repeats. Identical values can stand only once.

Experiments:
[1] = system: DPPIV-like activity of Fischer D+ and D− rat BM stromal cells; experiment: DPPIV-like activity assay on rat bone marrow stromal cells; assay type: cell-based
Method: (§1) Cell Source. 8-12 week old female wild type CD26 positive (D^+) and CD26 negative (D^−) Fischer rat (Charles River Labs, Japan) bone marrow.
(§2) Bone marrow preparation. Bone marrow was flushed from each femur, tibia and fibula with Dulbecco's phosphate buffered saline (D-PBS) using a 21-gauge needle and a 10 ml syringe. After removal, the bone marrow was immediately aspirated through the needle to make a single cell suspension. The cells were washed twice with sterile PBS and resuspended in MyeloCult H5100 long-term culture (LTC) media, available from Stem Cell Technologies, and supplemented with freshly diluted 10^−6 M hydrocortisone, available from Sigma.
Establishment of adherent bone marrow stromal cell cultures. […]
DPPIV-like activity assay. […] The reaction was stopped by removing the substrate solution from each well and measured in the fluorescence spectrophotometer or stored −20° C. Activity was measured using an excitation wavelength of 400 nm and emission wavelength of 505 nm.
Bone marrow stromal cells were established from the long bones of Fischer D^+ and D^− rats and cultured for 2 days in the presence or absence of PT-100. […] DPPIV-like activity is presented as velocity and the percent of protease activity inhibition with PT-100 is calculated relative to a ‘no treatment’ control.

[2] = system: Fischer D+ and D− rat bone marrow stromal cells; experiment: IL-6 release from rat bone marrow stromal cells (ELISA); assay type: cell-based; details: 2 days incubation
Method: as §1, §2
Establishment of adherent bone marrow stromal cell cultures. 1-2×10^7 cells were seeded into a T25 flask (Coming) containing 10 mls of LTC medium and incubated at 37° C. in 100% humidified 5% CO2 in air. After 1 week half the medium was exchanged for fresh medium and incubated for approximately 1 week until a confluent cell layer formed. PT-100 incubation. The adherent stromal cells were removed from the flask by trypsin-EDTA (Life Technologies, Inc.) digestion, washed once with sterile PBS and resuspended in long term culture medium at 1×10^5/ml. […]
Similar levels of IL-6 are secreted from bone marrow stromal cells of D^+ and D^− rats. […] IL-6 levels in the culture supernatant were determined by ELISA.

[3] = system: FAP-α+ CD26− primary human stromal cells; experiment: G-CSF release from FAP-α+ CD26− primary human stromal cells (ELISA); assay type: cell-based; details: human bone marrow cells lacking CD26 but expressing FAP-α, 2 days incubation
Method: (§3) Cell source. Bone marrow was kindly donated by New England Medical Center, Boston, Mass. and Dr. Richard Benjamin from Brigham and Women's Hospital in Boston, Mass. Mononuclear cells were purified over Ficoll and used immediately or frozen in liquid nitrogen.
(§4) Establishment of human stromal feeder layer. 2 to 4×10^7 human bone marrow mononuclear cells were seeded into a T75 flask (Corning) containing 20 mls of LTC medium and incubated. at 37° C. in 100% humidified 5% CO2 in air. After 1 week half the medium was exchanged for fresh medium and incubated for approximately 1 week when a confluent cell layer formed.
ELISA of human cells. Cultured supernatants were assayed for a high sensitivity ELISA (R+D Systems).
PT-100 incubation, supernatant collection and DPPIV-like activity assay for human and rat cells were carried out in an identical manner.
The DPPIV-like activity associated with the intact cells was inhibited by-PT-100. Stromal cells were established from the bone marrow of a human volunteer as described in the materials and methods. The stromal cells were incubated for 2 days in the presence or absence of the indicated concentrations of PT-100 and cultured supernatants were assayed for IL-6 or DPPIV-like activity as described in Materials and Methods.

[4] = system: DPPIV-like activity of FAP-α+ CD26− primary human stromal cells; experiment: DPPIV-like activity assay on FAP-α+ CD26− primary human stromal cells; assay type: cell-based; details: human stromal cells lacking CD26 but expressing FAP-α, 2 days incubation
Method: DPPIV-like activity assay. Following the removal of supernatant from the stromal cultures, the adherent cells were washed with D-PBS and assayed for DPPIV-like activity. The fluorogenic substrate Ala-Pro-AFC was diluted in DPPIV buffer (50 mM Hepes, 140 mM NaCl) from the original stock of 10 mM (stored at −20° C. as a solution in dimethyl-formamide) to 1 mM, directly before the assay. 30 μl of the 1 mM stock was added per ml of buffer and the stromal cells were incubated for 10 minutes with 1 ml per well of the diluted substrate. The reaction was stopped by removing the substrate solution from each well and measured in the fluorescence spectrophotometer or stored −20° C. Activity was measured using an excitation wavelength of 400 nm and emission wavelength of 505 nm.
as §3
as §4, with “formed. […]” for “formed.”

B16-F0 tumor = experiment: Established subcutaneous B16 melanoma in C57BL/6 mice; assay type: in vivo, mouse
Method: The highly metastic B16-F0 tumor was implanted subcutaneously (s.c.) in C57BL/6 mice. PT-100 administration was started on day 8 when palpable tumors were apparent. Tumor volumes were measured on days 8, 12, and 15. […] In the experiment of FIG. 4 each experimental group contained 10 animals.

WEHI-164 fibrosarcoma = experiment: Subcutaneous WEHI-164 fibrosarcoma in mice; assay type: in vivo, mouse
Method: Thus in the experiment of FIG. 5, the large reductions in tumor volume recorded were in part due to the absence of a palpable tumor in some of the mice:in each of the PT-100 treated groups (10 replicate animals per group). For example, in the mice treated with the 5 μg dose of PT-100 administered b.i.d., 6 of the animals were completely free of a detectable s.c. tumor. PT-100 treatment of the mice in the experimental groups was stopped on day 20, the day when the data of FIG. 5 were recorded.

[5] = administration started on day 2 after implantation

Q: Which results are given for `CC(C)[C@H](N)C(=O)N1CCC[C@H]1B(O)O` [PT-100, valine-proline-boronic acid]?
A: % Inhibition by 10^−6 M PT-100 of DPPIV-like activity ([1]; Fischer D− (CD26 negative) rat BM stromal cells, 2 days culture, 10^−6 M, relative to no treatment control): 86.4% and 73.8% and 62.1%; Inhibition of DPPIV-like activity (in words) ([1]; rat bone marrow stromal cells which lack CD26): potently inhibited; IL-6 levels in culture supernatant [2]: enhanced; G-CSF release [3]: potently stimulated; Inhibition of DPPIV-like activity associated with the intact cells [4]: inhibited; Tumor growth (B16-F0 tumor; 160 μg administered for two days, day 8 and day 9): effective in suppressing tumor growth; Tumor growth compared with saline treated control mice (B16-F0 tumor; 10 and 40 μg p.o. b.i.d. from day 8 to 14, tumor volumes days 8, 12, 15): markedly inhibited; Growth of B16 melanoma (B16-F0 tumor; administered orally, mice): significantly inhibits; Animals completely free of a detectable s.c. tumor (WEHI-164 fibrosarcoma; 5 μg b.i.d., started day 2, recorded day 20, 10 animals per group): 6 animals; Growth of WEHI-164 fibrosarcoma (WEHI-164 fibrosarcoma; administered orally, mice): significantly inhibits; Tumor growth (WEHI-164 fibrosarcoma; [5]): tumor growth inhibited; Tumor necrosis and regression (WEHI-164 fibrosarcoma; [5]): a proportion of the tumors also became necrotic and apparently regressed completely; Growth of an established s.c. tumor (WEHI-164 fibrosarcoma; established s.c. WEHI-164 tumor): could suppress the growth; Tumor recurrence in mice recorded as tumor-free on day 20 (WEHI-164 fibrosarcoma; treatment stopped on day 20, monitored up to day 30 after implantation): none of the mice recorded as tumor-free on day 20 has developed a detectable s.c. tumor
